target: T1, human thyroid receptor beta ligand-binding domain (LBD) (Homo sapiens, UniProt P10828); test: THR Biochemical Assay (Assay 1): TR-FRET thyroid receptor beta coactivator assay; conditions: GST-tagged thyroid receptor beta LBD 1 nM, fluorescein SRC2-2 coactivator peptide 200 nM, 1 hr at rt, TR-FRET ratio 520:495; read-out: Assay 1 (EC50, THR-beta agonist)
T1 construct: Thyroid receptor beta LBD was added to the plate at a final concentration of 1 nM; purchased Invitrogen
T1 sequence (P10828 217-461 limits assumed): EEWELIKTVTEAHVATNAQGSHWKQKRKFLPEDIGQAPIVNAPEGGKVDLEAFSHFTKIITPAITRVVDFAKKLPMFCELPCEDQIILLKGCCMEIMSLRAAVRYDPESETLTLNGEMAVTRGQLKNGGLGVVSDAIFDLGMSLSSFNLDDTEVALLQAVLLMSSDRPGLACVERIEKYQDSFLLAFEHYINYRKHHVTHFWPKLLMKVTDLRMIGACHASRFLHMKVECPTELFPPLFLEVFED
Description: THR Biochemical Assay (Assay 1)
The TR-FRET thyroid receptor beta coactivator assay was used with slight, optimized modifications of the manufacturer's protocol (Invitrogen). The assay uses a terbium-labeled anti-GST antibody, a glutathione-S-transferase (GST) tagged human thyroid receptor, beta or alpha, ligand-binding domain (LBD), and a fluorescein labeled SRC2-2 coactivator peptide. The antibody interacts with the LBD, where the agonist also binds, resulting in increased affinity for the SRC2-2 coactivator peptide causing energy transfer […] the acceptor fluorophore and a FRET emission shift from 495 to 520 nm. The energy transfer was detected as an increase in the fluorescence emission of the fluorescein acceptor, and a decrease in the fluorescence emission of the terbium donor. The assay was performed in a 384-well black plate in a final volume of 20 μL. Serial dilution of various test agonists was performed in DMSO (1% final DMSO concentration) and added to the test plate. Thyroid receptor beta LBD was added to the plate at a final concentration of 1 nM, followed by the mixture of the fluorescein labeled SRC2-2 coactivator peptide, and the terbium-labeled anti-GST antibody at final concentrations of 200 nM and 2 nM respectively. The assay was incubated for 1 hr at rt protected from light. The TR-FRET was then measured on a Victor multilabel reader (Perkin Elmer) using an excitation wavelength of 340 nm with emission filters of 495 nm and 520 nm. The assay was quantified by expressing a ratio (520:495) of the intensities, and the resulting activation curves; EC50 values were generated using a sigmoidal dose response (variable slope) equation in GraphPad™ Prism 8.0.

| SMILES | EC50 [µM] |
| --- | --- |
| CC1CC12C(=O)Nc1ccc(Oc3c(Cl)cc(-n4nc(N)c(=O)[nH]c4=O)cc3Cl)cc12 (single isomer, unassigned) [Compound 32, 6-amino-2-(3,5-dichloro-4-((2-methyl-2′-oxospiro[cyclopropane-1,3′-indolin]-5′-yl)oxy)phenyl)-1,2,4-triazine-3,5(2H,4H)-dione] | < 0.05 |
| CC1CC12C(=O)Nc1ccc(Oc3c(Cl)cc(NC(=O)C(=O)O)cc3Cl)cc12 (single isomer, unassigned) [Compound 34, 2-((3,5-dichloro-4-((2-methyl-2′-oxospiro[cyclopropane-1,3′-indolin]-5′-yl)oxy)phenyl)amino)-2-oxoacetic acid] | < 0.05 |
| CC1CC12C(=O)Nc1ccc(Oc3c(Cl)cc(NC(=O)C(=O)O)cc3Cl)cc12 (single isomer, unassigned) [Compound 35, 2-((3,5-dichloro-4-((2-methyl-2′-oxospiro[cyclopropane-1,3′-indolin]-5′-yl)oxy)phenyl)amino)-2-oxoacetic acid] | < 0.05 |
| Cc1cc(OCC(=O)O)c(C)c(C)c1Cc1ccc2c(n1)C(C)(C)C(=O)N2 [Compound 1, 4-([3,3-dimethyl-2-oxo-1H-pyrrolo[3,2-b]pyridin-5-yl]methyl)-2,3,5-trimethylphenoxyacetic acid] | 0.05 to 0.25 |
| Cc1cc(-n2nc(C#N)c(=O)[nH]c2=O)cc(C)c1Oc1ccc2c(c1)C1(CC1)C(=O)N2 [Compound 2, 2-(3,5-dimethyl-4-((2′-oxospiro[cyclopropane-1,3′-indolin]-5′-yl)oxy)phenyl)-3,5-dioxo-2,3,4,5-tetrahydro-1,2,4-triazine-6-carbonitrile] | < 0.05 |
| Cc1cc(-n2nc(C#N)c(=O)[nH]c2=O)cc(C)c1Oc1ccc2c(c1)C1(CCC1)C(=O)N2 [Compound 3, 2-(3,5-dimethyl-4-((2′-oxospiro[cyclobutane-1,3′-indolin]-5′-yl)oxy)phenyl)-3,5-dioxo-2,3,4,5-tetrahydro-1,2,4-triazine-6-carbonitrile] | < 0.05 |
| Cc1cc(-n2nc(N)c(=O)[nH]c2=O)cc(C)c1Cc1ccc2c(c1)C1(CCC1)C(=O)N2 [Compound 4, 6-amino-2-(3,5-dimethyl-4-{2′-oxo-1′H-spiro[cyclobutane-1,3′-indol]-5′-ylmethyl}phenyl)-4H-1,2,4-triazine-3,5-dione] | < 0.05 |
| O=C1Nc2ccc(Oc3c(Cl)cc(-n4ncc(=O)[nH]c4=O)cc3Cl)cc2C12CCC2 [Compound 5, 2-(3,5-dichloro-4-((2′-oxospiro[cyclobutane-1,3′-indolin]-5′-yl)oxy)phenyl)-1,2,4-triazine-3,5(2H,4H)-dione] | < 0.05 |
| Nc1nn(-c2cc(Cl)c(Oc3ccc4c(c3)C3(CCC3)C(=O)N4)c(Cl)c2)c(=O)[nH]c1=O [Compound 6, 6-amino-2-(3,5-dichloro-4-((2′-oxospiro[cyclobutane-1,3′-indolin]-5′-yl)oxy)phenyl)-1,2,4-triazine-3,5(2H,4H)-dione] | < 0.05 |
| Cc1cc(-n2nc(C#N)c(=O)[nH]c2=O)cc(C)c1Cc1ccc2c(c1)C1(CC(F)(F)C1)C(=O)N2 [Compound 7, 2-(4-((3,3-difluoro-2′-oxospiro[cyclobutane-1,3′-indolin]-5′-yl)methyl)-3,5-dimethylphenyl)-3,5-dioxo-2,3,4,5-tetrahydro-1,2,4-triazine-6-carbonitrile] | > 25 |
| Cc1cc(-n2nc(N)c(=O)[nH]c2=O)cc(C)c1Cc1ccc2c(c1)C1(CC(F)(F)C1)C(=O)N2 [Compound 8, 6-amino-2-(4-{3,3-difluoro-2′-oxo-1′H-spiro[cyclobutane-1,3′-indol]-5′-ylmethyl}-3,5-dimethylphenyl)-4H-1,2,4-triazine-3,5-dione] | > 25 |
| N#Cc1nn(-c2cc(Cl)c(Oc3ccc4c(c3)C3(CC(F)(F)C3)C(=O)N4)c(Cl)c2)c(=O)[nH]c1=O [Compound 9, 2-(3,5-dichloro-4-((3,3-difluoro-2′-oxospiro[cyclobutane-1,3′-indolin]-5′-yl)oxy)phenyl)-3,5-dioxo-2,3,4,5-tetrahydro-1,2,4-triazine-6-carbonitrile] | < 0.05 |
| Nc1nn(-c2cc(Cl)c(Oc3ccc4c(c3)C3(CC(F)(F)C3)C(=O)N4)c(Cl)c2)c(=O)[nH]c1=O [Compound 11, 6-amino-2-(3,5-dichloro-4-((3,3-difluoro-2′-oxospiro[cyclobutane-1,3′-indolin]-5′-yl)oxy)phenyl)-1,2,4-triazine-3,5(2H,4H)-dione] | 0.05 to 0.25 |
| Cc1cc(-n2nc(N)c(=O)[nH]c2=O)cc(C)c1Cc1ccc2c(n1)C(C)(C)C(=O)N2 [Compound 12, 6-amino-2-[4-({3,3-dimethyl-2-oxo-1H-pyrrolo[3,2-b]pyridin-5-yl}methyl)-3,5-dimethylphenyl]-4H-1,2,4-triazine-3,5-dione] | 0.05 to 0.25 |
| O=C(O)C(=O)Nc1cc(Cl)c(Oc2ccc3c(c2)C2(CCC2)C(=O)N3)c(Cl)c1 [Compound 13, 2-((3,5-dichloro-4-((2′-oxospiro[cyclobutane-1,3′-indolin]-5′-yl)oxy)phenyl)amino)-2-oxoacetic acid] | < 0.05 |
| O=C(Nc1cc(Cl)c(Oc2ccc3c(c2)C2(CCC2)C(=O)N3)c(Cl)c1)c1noc(=O)[nH]1 [Compound 14, N-(3,5-dichloro-4-((2′-oxospiro[cyclobutane-1,3′-indolin]-5′-yl)oxy)phenyl)-5-oxo-4,5-dihydro-1,2,4-oxadiazole-3-carboxamide] | < 0.05 |
| O=C1Nc2ccc(Oc3c(Cl)cc(-c4n[nH]c(=O)[nH]c4=O)cc3Cl)cc2C12CCC2 [Compound 15, 6-(3,5-dichloro-4-((2′-oxospiro[cyclobutane-1,3′-indolin]-5′-yl)oxy)phenyl)-1,2,4-triazine-3,5(2H,4H)-dione] | < 0.05 |
| Cn1nc(-c2cc(Cl)c(Oc3ccc4c(c3)C3(CCC3)C(=O)N4)c(Cl)c2)c(=O)[nH]c1=O [Compound 16, 6-(3,5-dichloro-4-((2′-oxospiro[cyclobutane-1,3′-indolin]-5′-yl)oxy)phenyl)-2-methyl-1,2,4-triazine-3,5(2H,4H)-dione] | < 0.05 |
| Nc1nn(-c2cc(Cl)c(Oc3ccc4c(c3F)C3(CCC3)C(=O)N4)c(Cl)c2)c(=O)[nH]c1=O [Compound 17, 6-amino-2-(3,5-dichloro-4-((4′-fluoro-2′-oxospiro[cyclobutane-1,3′-indolin]-5′-yl)oxy)phenyl)-1,2,4-triazine-3,5(2H,4H)-dione] | < 0.05 |
| Cc1c(Oc2c(Cl)cc(-n3nc(N)c(=O)[nH]c3=O)cc2Cl)ccc2c1C1(CCC1)C(=O)N2 [Compound 18, 6-amino-2-(3,5-dichloro-4-((4′-methyl-2′-oxospiro[cyclobutane-1,3′-indolin]-5′-yl)oxy)phenyl)-1,2,4-triazine-3,5(2H,4H)-dione] | < 0.05 |
| Cc1cc2c(cc1Oc1c(Cl)cc(-n3nc(N)c(=O)[nH]c3=O)cc1Cl)C1(CCC1)C(=O)N2 [Compound 19, 6-amino-2-(3,5-dichloro-4-((6′-methyl-2′-oxospiro[cyclobutane-1,3′-indolin]-5′-yl)oxy)phenyl)-1,2,4-triazine-3,5(2H,4H)-dione] | > 25 |
| Cc1cc(OCC(=O)O)c(C)c(C)c1Cc1ccc2c(c1)C1(CC1)C(=O)N2 [Compound 20, 2-(2,3,5-trimethyl-4-((2′-oxospiro[cyclopropane-1,3′-indolin]-5′-yl)methyl)phenoxy)acetic acid] | < 0.05 |
| Nc1nn(-c2cc(Cl)c(Oc3cc(F)c4c(c3)C3(CCC3)C(=O)N4)c(Cl)c2)c(=O)[nH]c1=O [Compound 21, 6-amino-2-(3,5-dichloro-4-((7′-fluoro-2′-oxospiro[cyclobutane-1,3′-indolin]-5′-yl)oxy)phenyl)-1,2,4-triazine-3,5(2H,4H)-dione] | < 0.05 |
| O=C(Nc1cc(Cl)c(Oc2ccc3c(c2)C2(CC2)C(=O)N3)c(Cl)c1)c1noc(=O)[nH]1 [Compound 22, N-(3,5-dichloro-4-((2′-oxospiro[cyclopropane-1,3′-indolin]-5′-yl)oxy)phenyl)-5-oxo-4,5-dihydro-1,2,4-oxadiazole-3-carboxamide] | < 0.05 |
| Cc1c(Oc2c(Cl)cc(NC(=O)c3noc(=O)[nH]3)cc2Cl)ccc2c1C1(CC1)C(=O)N2 [Compound 23, N-(3,5-dichloro-4-((4′-methyl-2′-oxospiro[cyclopropane-1,3′-indolin]-5′-yl)oxy)phenyl)-5-oxo-4,5-dihydro-1,2,4-oxadiazole-3-carboxamide] | < 0.05 |
| Cc1cc(-n2nc(N)c(=O)[nH]c2=O)cc(C)c1Oc1ccc2c(c1)C1(CCC1)C(=O)N2 [Compound 24, 6-amino-2-(3,5-dimethyl-4-((2′-oxospiro[cyclobutane-1,3′-indolin]-5′-yl)oxy)phenyl)-1,2,4-triazine-3,5(2H,4H)-dione] | < 0.05 |
